Source: PubChem BioAssay (NCI)
Several values for one entry are separate records, joined by “and”; a condition that tells them apart may be missing. Equal values may be shown once.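 Grown in 96-well plates, cells were treated for 48 hours with each compound at five concentrations. Insufficient inhibition: endpoint recorded as highest concentration tested. GI50: concentration for 50% inhibition of growth. TGI denotes the concentration required for complete inhibition of growth.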

Experiments:
Test in all cases: inhibition of tumour cell growth, NCI panel, 48 h
[1] = system: RXF 393 renal
[2] = system: U251 CNS
[3] = system: SR leukemia
[4] = system: CCRF-CEM leukemia
[5] = system: OVCAR-4 ovarian
[6] = system: OVCAR-5 ovarian
[7] = system: LOX IMVI melanoma
[8] = system: NCI-H522 lung
[9] = system: UACC-257 melanoma

Compound | TGI [1] | TGI [2] | TGI [3] | TGI [4] | TGI [5] | TGI [6] | TGI [7] | TGI [8] | TGI [9] | GI50 [3] | GI50 [6] | GI50 [7] | GI50 [1] | GI50 [2] | GI50 [4] | GI50 [5] | GI50 [8] | GI50 [9]
CC1(O)C=CC2CCC1C2O (centres undefined) | > 100 µM | > 100 µM | 50.2 µM | > 100 µM | > 100 µM | > 100 µM | 35.9 µM | > 100 µM | > 100 µM | – | – | – | – | – | – | – | – | –
CCOC(=O)C(C)(C)Oc1ccc2c(=O)cc(-c3ccccc3)oc2c1 | 78.1 µM | 44.9 µM | – | 43.6 µM | – | > 100 µM | 37.1 µM | 28.5 µM | 31.2 µM | – | – | – | – | – | – | – | – | –
CN(C(=O)C1(C(=O)C=[N+]=[N-])CC1)c1ccccc1 | > 100 µM | > 100 µM | > 100 µM | > 100 µM | – | > 100 µM | > 100 µM | > 100 µM | > 100 µM | – | – | – | – | – | – | – | – | –
CN1CCn2c(Br)ccc2C1=O | > 100 µM | > 100 µM | > 100 µM | > 100 µM | > 100 µM | – | > 100 µM | > 100 µM | > 100 µM | – | – | – | – | – | – | – | – | –
CCOc1ccc2[nH]c3c(C)c4cc[n+](C)cc4c(C)c3c2c1 | > 100 µM | 1.08 µM and 1.15 µM | 13.7 µM and > 62.5 µM | 23.7 µM and 37.3 µM | 15.2 µM and 26.2 µM | > 100 µM | 19.4 µM and > 67.1 µM | 3.05 µM and 3.57 µM | 13.7 µM and 27.8 µM | 1.13 µM and 2.69 µM | 10.3 µM and 38.8 µM | 2.99 µM and 11.4 µM | – | – | – | – | – | –
N#Cc1c(NC(=O)c2ccccc2)sc2c1CCC(=O)C2 | 3.65 µM | 16.9 µM | – | > 100 µM | 2.49 µM | 4.77 µM | 5.97 µM | 4.66 µM | 5.49 µM | – | 1.25 µM | 0.821 µM | 1.17 µM | 1.52 µM | 0.43 µM | 0.806 µM | 0.358 µM | 1.59 µM
CCOC(=O)c1cc2c(OC(C)=O)ccc(OC(C)=O)c2s1 | 3.42 µM | 10.4 µM | > 22.7 µM | 5.29 µM | 31.3 µM | 18.9 µM | 3.09 µM | 1.07 µM | 4.97 µM | – | – | – | – | – | – | – | – | –
COc1cc([C@@H]2c3cc4c(cc3[C@@H](NC(=O)c3ccc(N)cc3)C3COC(=O)[C@@H]32)OCO4)cc(OC)c1O (some centres undefined) | 67.6 µM | 3.5 µM | – | 13.1 µM | > 100 µM | 34.5 µM | 18.7 µM | 9.23 µM | > 100 µM | – | – | – | – | – | – | – | – | –
COc1cc(C2C3=C(CCC3=O)Oc3cc4c(cc32)OCO4)cc(OC)c1OC (centres undefined) | > 100 µM | > 100 µM | – | > 100 µM | > 100 µM | > 100 µM | > 100 µM | – | > 100 µM | – | – | – | – | – | – | – | – | –
COc1cccc(NC(=O)CSc2nnc(-c3ccc(N=Cc4ccc(Cl)cc4)cc3)o2)c1 | 34 µM | 30.8 µM | > 100 µM | > 100 µM | > 100 µM | – | 37.7 µM | 32.9 µM | – | – | – | – | – | – | – | – | – | –
NC(Cc1cc(I)c(O)c(I)c1)C(=O)O (centres undefined) | 449 µM | > 500 µM | – | > 500 µM | 332 µM | > 500 µM | > 361 µM | 130 µM | > 354 µM | – | – | – | – | – | – | – | – | –
CC[C@]12C=CCN3CCC4(c5cc(N=Nc6ccccc6)c(OC)cc5N(C)[C@H]4[C@@](O)(C(=O)OC)[C@@H]1OC(C)=O)[C@@H]32 (some centres undefined) | 30.9 µM | 29.4 µM | 45.5 µM | – | 38.8 µM | 41.1 µM | 33 µM | 33 µM | 34.9 µM | – | – | – | – | – | – | – | – | –
O=S1(=O)NNC(=NCc2ccc(Cl)cc2)c2ccccc21 | > 100 µM | > 100 µM | – | > 100 µM | > 100 µM | > 100 µM | > 100 µM | – | > 100 µM | – | – | – | – | – | – | – | – | –
CC1=CC(O)C(O)C2(C)C1CC1OC(=O)C(O)C3C(C)C(O)C4(O)OCC13C42 (centres undefined) | 51 µM | 475 µM | – | 96.9 µM | 476 µM | > 454 µM | 156 µM | 214 µM | 467 µM | – | – | – | – | – | – | – | – | –
CS(=O)(=O)OCCN1CCC2(CC1)SSC1(CCN(CCOS(C)(=O)=O)CC1)S2 | – | > 100 µM | 65.9 µM | – | > 100 µM | 93.2 µM | 97.8 µM | – | > 100 µM | – | – | – | – | – | – | – | – | –
CC(C)(C)N=C1CC(C)(C)c2ccccc2C(=Nc2ccccc2)S1 | > 100 µM | > 100 µM | – | > 100 µM | – | > 100 µM | 40.1 µM | 46.7 µM | > 100 µM | – | – | – | – | – | – | – | – | –
OC(c1ccc(Cl)cc1)(c1ccc(Cl)cc1)C(O)(c1ccc(Cl)cc1)c1ccc(Cl)cc1 | – | – | – | > 100 µM | – | – | – | – | – | – | – | – | – | – | 3.41 µM | – | – | –
COC(=O)c1sc(=S)sc1SCc1ccccc1CSc1sc(=S)sc1C(=O)OC | > 100 µM | > 100 µM | – | 87.6 µM | > 100 µM | > 100 µM | > 100 µM | > 100 µM | > 100 µM | – | – | – | – | – | – | – | – | –
COc1ccc(/C=C2\Cc3ccccc3C2=O)cc1OC | – | > 100 µM | – | > 100 µM | > 100 µM | > 100 µM | – | > 100 µM | > 100 µM | – | – | – | – | – | – | – | – | –
CCN(CC)CCO/N=C1\CC[C@H]2[C@@H]3CC=C4C[C@@H](O)CC[C@]4(C)[C@H]3CC[C@]12C | 34.1 µM | 35.9 µM | 26.4 µM | – | 71.1 µM | > 100 µM | 31.1 µM | 34 µM | 30.4 µM | – | – | – | – | – | – | – | – | –
